Assay results as given in ChEMBL document CHEMBL5370585, “Exploration and Biological Evaluation of 1,3-Diamino-7H-pyrrol[3,2-f]quinazoline Derivatives as Dihydrofolate Reductase Inhibitors” (J Med Chem, 2023).
pIC50: −log10 of the molar value. In brackets after ≈: the same amount, converted by molar mass. Activity calls are given as the source filed them. The rule behind the calls is not given here.

Experiments:
[1] = tested on: Staphylococcus epidermidis; test: Antibacterial activity against Staphylococcus epidermidis ATCC 12228 incubated for 16 to 18 hrs by CLSI based broth dilution method; type: functional; settings: time 16-18 hrs
Klebsiella pneumoniae [2] = test: Antibacterial activity against Klebsiella pneumoniae ATCC 700603 assessed as reduction in microbial growth incubated for 16 to 18 hrs by CLSI based broth dilution method; type: functional; settings: time 16-18 hrs
[3] = Toxicity in BALB/c mouse xenografted with mouse EMT6 cells at 5 mg/kg, ip administered every 3 days for 14 consecutive days; type: organism-based; settings: in vivo, 336 h, time 14 day
Staphylococcus aureus [4] = test: Antibacterial activity against methicillin-resistant Staphylococcus aureus ATCC 43300 incubated for 16 to 18 hrs in presence of human plasma by CLSI based broth dilution method; type: functional; settings: time 16-18 hrs
EMT6 [5] = test: Antitumor activity against mouse EMT6 cells xenografted in BALB/c mouse model assessed as tumor weight at 5 mg/kg,ip administered every 3 days for 14 consecutive days (reference value: 1.53 +/-0.26g); type: functional; settings: time 14 day
Staphylococcus aureus [6] = test: Antibacterial activity against methicillin-resistant Staphylococcus aureus ATCC 33591 incubated for 16 to 18 hrs by CLSI based broth dilution method; type: functional; settings: time 16-18 hrs
Escherichia coli [7] = test: Antibacterial activity against Escherichia coli ATCC 25922 incubated for 16 to 18 hrs in presence of human plasma by CLSI based broth dilution method; type: functional; settings: time 16-18 hrs
Acinetobacter baumannii [8] = test: Antibacterial activity against Acinetobacter baumannii ATCC 19606 incubated for 16 to 18 hrs by CLSI based broth dilution method; type: functional; settings: time 16-18 hrs
Staphylococcus aureus [9] = test: Antibacterial activity against Staphylococcus aureus ATCC 29213 incubated for 16 to 18 hrs in absence of human plasma by CLSI based broth dilution method; type: functional; settings: time 16-18 hrs
[10] = Toxicity in BALB/c mouse xenografted with mouse EMT6 cells assessed as effect on body weight at 10 mg/kg, ip measured on day 14 (reference value: 21.6 +/-0.6g); type: organism-based; settings: in vivo, 336 h, time 14 day
Escherichia coli [11] = test: Antibacterial activity against Escherichia coli ECO 15-1 incubated for 16 to 18 hrs by CLSI based broth dilution method; type: functional; settings: time 16-18 hrs
Acinetobacter baumannii [12] = test: Antibacterial activity against Acinetobacter baumannii 20-1 incubated for 16 to 18 hrs by CLSI based broth dilution method; type: functional; settings: time 16-18 hrs
HepG2 = test: Cytotoxicity against human HepG2 cells measured after 72 hrs by MTT assay; type: functional, cell-based; settings: HepG2, 72 h
Enterococcus = test: Antibacterial activity against Vancomycin-resistant Enterococcus ATCC 51575 incubated for 16 to 18 hrs by CLSI based broth dilution method; type: functional; settings: time 16-18 hrs
MCF7 = test: Cytotoxicity against human MCF7 cells measured after 72 hrs by MTT assay; type: functional, cell-based; settings: MCF7, 72 h
Enterococcus faecalis [13] = test: Antibacterial activity against Enterococcus faecalis EFA19-1 incubated for 16 to 18 hrs by CLSI based broth dilution method; type: functional; settings: time 16-18 hrs
Staphylococcus aureus [14] = test: Antibacterial activity against methicillin-sensitive Staphylococcus aureus 15-1 incubated for 16 to 18 hrs by CLSI based broth dilution method; type: functional; settings: time 16-18 hrs
Escherichia coli [15] = test: Antibacterial activity against Escherichia coli ATCC 25922 assessed as inhibition of bacterial growth at upto 8 times MIC measured upto 28 hrs by time kill curve assay; type: functional, organism-based
EMT6 [16] = test: Antitumor activity against mouse EMT6 cells xenografted in BALB/c mouse model assessed as tumor growth inhibition at 10 mg/kg,ip administered every 3 days for 14 consecutive days relative to control; type: functional; set-up: scale not given: the % may be the effect or the level left; settings: time 14 day
Pseudomonas aeruginosa = test: Antibacterial activity against Pseudomonas aeruginosa ATCC 27853 incubated for 16 to 18 hrs by CLSI based broth dilution method; type: functional; settings: time 16-18 hrs
Staphylococcus aureus [17] = test: Antibacterial activity against Staphylococcus aureus ATCC 29213 incubated for 16 to 18 hrs by CLSI based broth dilution method; type: functional; settings: time 16-18 hrs
Staphylococcus aureus [18] = test: Antibacterial activity against methicillin-resistant Staphylococcus aureus ATCC 43300 assessed as inhibition of bacterial growth at upto 8 times MIC measured upto 28 hrs by time kill curve assay; type: functional, organism-based
Escherichia coli [19] = test: Antibacterial activity against Escherichia coli ATCC 25922 incubated for 16 to 18 hrs by CLSI based broth dilution method; type: functional; settings: time 16-18 hrs
HCT-116 = test: Cytotoxicity against human HCT-116 cells measured after 72 hrs by MTT assay; type: functional, cell-based; settings: HCT-116, 72 h
Staphylococcus aureus [20] = test: Antibacterial activity against methicillin-sensitive Staphylococcus aureus 15-2 incubated for 16 to 18 hrs by CLSI based broth dilution method; type: functional; settings: time 16-18 hrs
[21] = target: T1, Dihydrofolate reductase (Homo sapiens) (UniProt P00374); test: Inhibition of human DHFR at 1 uM incubated for 10 mins in presence of NADPH by colorimetry based analysis relative to control
T1 sequence (whole entry): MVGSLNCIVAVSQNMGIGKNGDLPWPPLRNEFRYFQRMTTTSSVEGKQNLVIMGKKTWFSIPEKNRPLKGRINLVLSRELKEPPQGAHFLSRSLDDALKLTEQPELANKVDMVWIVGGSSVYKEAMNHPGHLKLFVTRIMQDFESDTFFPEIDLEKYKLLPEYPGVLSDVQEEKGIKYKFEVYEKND

EMT6 [22] = test: Antitumor activity against mouse EMT6 cells xenografted in ip dosed BALB/c mouse model assessed as delay in tumor progression administered every 3 days for 14 consecutive days; type: functional, organism-based; settings: time 14.0 day
Escherichia coli [23] = test: Antibacterial activity against Escherichia coli ATCC 25922 incubated for 16 to 18 hrs in absence of human plasma by CLSI based broth dilution method; type: functional; settings: time 16-18 hrs
Enterococcus faecalis [24] = test: Antibacterial activity against Enterococcus faecalis ATCC 29212 incubated for 16 to 18 hrs by CLSI based broth dilution method; type: functional; settings: time 16-18 hrs
Acinetobacter baumannii [25] = test: Antibacterial activity against Acinetobacter baumannii ATCC 19606 assessed as reduction in microbial growth incubated for 16 to 18 hrs by CLSI based broth dilution method; type: functional; settings: time 16-18 hrs
Staphylococcus aureus [26] = test: Antibacterial activity against methicillin-sensitive Staphylococcus aureus ATCC 29213 incubated for 16 to 18 hrs by CLSI based broth dilution method; type: functional; settings: time 16-18 hrs
Enterococcus faecalis [27] = test: Antibacterial activity against Enterococcus faecalis EFA19-2 incubated for 16 to 18 hrs by CLSI based broth dilution method; type: functional; settings: time 16-18 hrs
EMT6 [28] = test: Antitumor activity against mouse EMT6 cells xenografted in BALB/c mouse model assessed as tumor growth inhibition at 5 mg/kg,ip administered every 3 days for 14 consecutive days relative to control; type: functional; set-up: scale not given: the % may be the effect or the level left; settings: time 14 day
Staphylococcus aureus [29] = test: Antibacterial activity against Staphylococcus aureus ATCC 29213 incubated for 16 to 18 hrs in presence of human plasma by CLSI based broth dilution method; type: functional; settings: time 16-18 hrs
Klebsiella pneumoniae [30] = test: Antibacterial activity against Klebsiella pneumoniae 15-1 assessed as reduction in microbial growth incubated for 16 to 18 hrs by CLSI based broth dilution method; type: functional; settings: time 16-18 hrs
Staphylococcus aureus [31] = test: Antibacterial activity against methicillin-resistant Staphylococcus aureus ATCC 43300 incubated for 16 to 18 hrs in absence of human plasma by CLSI based broth dilution method; type: functional; settings: time 16-18 hrs
EMT6 [32] = test: Antitumor activity against mouse EMT6 cells xenografted in BALB/c mouse model assessed as tumor weight at 10 mg/kg,ip administered every 3 days for 14 consecutive days (reference value: 1.53 +/-0.26g); type: functional; settings: time 14 day
[33] = Toxicity in BALB/c mouse xenografted with mouse EMT6 cells assessed as effect on body weight at 10 mg/kg, ip measured on day 1 (reference value: 18.5 +/-0.5g); type: organism-based; settings: in vivo, 24 h, time 1 day
HGC-27 = test: Cytotoxicity against human HGC-27 cells measured after 72 hrs by MTT assay; type: functional, cell-based; settings: HGC-27, 72 h
[34] = Toxicity in BALB/c mouse xenografted with mouse EMT6 cells assessed as effect on body weight at 5 mg/kg, ip measured on day 14 (reference value: 21.6 +/-0.6g); type: organism-based; settings: in vivo, 336 h, time 14 day
[35] = Toxicity in BALB/c mouse xenografted with mouse EMT6 cells assessed as effect on body weight at 5 mg/kg, ip measured on day 1 (reference value: 18.5 +/-0.5g); type: organism-based; settings: in vivo, 24 h, time 1 day
Acinetobacter baumannii [36] = test: Antibacterial activity against Acinetobacter baumannii 20-2 incubated for 16 to 18 hrs by CLSI based broth dilution method; type: functional; settings: time 16-18 hrs
Staphylococcus aureus [37] = test: Antibacterial activity against methicillin-sensitive Staphylococcus aureus ATCC 25923 incubated for 16 to 18 hrs by CLSI based broth dilution method; type: functional; settings: time 16-18 hrs
Staphylococcus aureus [38] = test: Antibacterial activity against vancomycin intermediate Staphylococcus aureus ATCC 700699 incubated for 16 to 18 hrs by CLSI based broth dilution method; type: functional; settings: time 16-18 hrs
Staphylococcus aureus [39] = test: Antibacterial activity against methicillin-resistant Staphylococcus aureus ATCC 43300 incubated for 16 to 18 hrs by CLSI based broth dilution method; type: functional; settings: time 16-18 hrs
Staphylococcus aureus [40] = test: Antibacterial activity against vancomycin intermediate Staphylococcus aureus ATCC 700788 incubated for 16 to 18 hrs by CLSI based broth dilution method; type: functional; settings: time 16-18 hrs
Escherichia coli [41] = test: Antibacterial activity against Escherichia coli ATCC BAA-2340 incubated for 16 to 18 hrs by CLSI based broth dilution method; type: functional; settings: time 16-18 hrs
EMT6 [42] = test: Antitumor activity against mouse EMT6 cells xenografted in BALB/c mouse model assessed as tumor growth inhibition at 20 mg/kg,ip administered every 3 days for 14 consecutive days relative to control; type: functional; set-up: scale not given: the % may be the effect or the level left; settings: time 14 day
[43] = Toxicity in BALB/c mouse xenografted with mouse EMT6 cells assessed as effect on body weight at 20 mg/kg, ip measured on day 14 (reference value: 21.6 +/-0.6g); type: organism-based; settings: in vivo, 336 h, time 14 day
[44] = Toxicity in BALB/c mouse xenografted with mouse EMT6 cells at 24 mg/kg, ip administered every 3 days for 14 consecutive days; type: organism-based; settings: in vivo, 336 h, time 14 day
[45] = Toxicity in BALB/c mouse xenografted with mouse EMT6 cells assessed as effect on body weight at 20 mg/kg, ip measured on day 1 (reference value: 18.5 +/-0.5g); type: organism-based; settings: in vivo, 24 h, time 1 day
EMT6 [46] = test: Antitumor activity against mouse EMT6 cells xenografted in BALB/c mouse model assessed as tumor weight at 20 mg/kg,ip administered every 3 days for 14 consecutive days (reference value: 1.53 +/-0.26g); type: functional; settings: time 14 day

Nc1nc(N)c2c(ccc3c2ccn3Cc2nc3ccccc3s2)n1
MIC [1]: ≤ 0.004 µg/mL
MIC (Klebsiella pneumoniae [2]): 2 µg/mL
Activity [3]: Non-Toxic
MIC (Staphylococcus aureus [4]): 1 µg/mL
Activity (EMT6 [5]): 0.41 g
MIC (Staphylococcus aureus [6]): ≤ 0.03 µg/mL
MIC (Escherichia coli [7]): 1 µg/mL
MIC (Acinetobacter baumannii [8]): 1 µg/mL (≈ 2.89 µM)
MIC (Staphylococcus aureus [9]): 0.06 µg/mL (≈ 0.173 µM)
Activity [10]: 14.3 g
MIC (Escherichia coli [11]): > 64 µg/mL
MIC (Acinetobacter baumannii [12]): 16 µg/mL (≈ 46.2 µM)
pIC50 (HepG2): 7.47
MIC (Enterococcus): ≤ 0.03 µg/mL
pIC50 (MCF7): 6.96
MIC (Enterococcus faecalis [13]): ≤ 0.03 µg/mL
MIC (Staphylococcus aureus [14]): ≤ 0.03 µg/mL
Activity (Escherichia coli [15]): Active
Activity (EMT6 [16]): 71.1%
MIC (Pseudomonas aeruginosa): > 64 µg/mL
MIC (Staphylococcus aureus [17]): 0.06 µg/mL (≈ 0.173 µM)
Activity (Staphylococcus aureus [18]): Active
MIC (Escherichia coli [19]): 0.03 µg/mL (≈ 0.0866 µM)
pIC50 (HCT-116): 8.70
MIC (Staphylococcus aureus [20]): ≤ 0.03 µg/mL
inhibition [21]: 96%
Activity (EMT6 [22]): Dose-Dependent Effect
MIC (Escherichia coli [23]): 0.03 µg/mL (≈ 0.0866 µM)
MIC (Enterococcus faecalis [24]): ≤ 0.004 µg/mL
MIC (Acinetobacter baumannii [25]): 1 µg/mL
MIC (Staphylococcus aureus [26]): ≤ 0.03 µg/mL
MIC (Enterococcus faecalis [27]): ≤ 0.03 µg/mL
Activity (EMT6 [28]): 72.9%
MIC (Staphylococcus aureus [29]): 2 µg/mL
MIC (Klebsiella pneumoniae [30]): 2 µg/mL
MIC (Staphylococcus aureus [31]): 0.016 µg/mL (≈ 0.0462 µM)
Activity (EMT6 [32]): 0.44 g
Activity [33]: 18.6 g
pIC50 (HGC-27): 9.00
Activity [34]: 15.1 g
Activity [35]: 18.5 g
MIC (Acinetobacter baumannii [36]): 1 µg/mL (≈ 2.89 µM)
MIC (Staphylococcus aureus [37]): 0.06 µg/mL (≈ 0.173 µM)
MIC (Staphylococcus aureus [38]): 0.25 µg/mL (≈ 0.722 µM)
MIC (Staphylococcus aureus [39]): 0.016 µg/mL (≈ 0.0462 µM)
MIC (Staphylococcus aureus [40]): ≤ 0.03 µg/mL
MIC (Escherichia coli [41]): > 64 µg/mL

CC(=O)O[C@H]1C(=O)[C@@]2(C)[C@H]([C@H](OC(=O)c3ccccc3)[C@]3(O)C[C@H](OC(=O)[C@H](O)[C@@H](NC(=O)c4ccccc4)c4ccccc4)C(C)=C1C3(C)C)[C@]1(OC(C)=O)CO[C@@H]1C[C@@H]2O [PACLITAXEL]
Activity (EMT6 [42]): 53.2%
Activity [43]: 20.1 g
Activity [44]: Non-Toxic
Activity [45]: 18.6 g
Activity (EMT6 [46]): 0.71 g
